Common to all, as to assay type: in vivo, mouse
Assay [1] is described as follows: Intranasal PZ6005 in diet-induced obese mice: food intake and energy expenditure. As to conditions: I.N. 1 or 5 mg/animal/day, Day 8-Day 11 of treatment, diet-induced obesity. As to the method: (§1) Mice were acclimated for 24 h and then monitored for 48 h in an environmentally controlled Promethion Metabolic Screening System (Sable Systems International, NV) fitted with indirect open circuit calorimetry, food consumption and activity monitors to measure activity, caloric intake and energy expenditure. Respiratory quotients were calculated as the ratio of CO2 production over O2 consumption respiratory exchange ratio and energy expenditure was calculated using the Weir equation (Kcal h-1=60×(0.003941×VO2+0.001106×VCO2). To account for difference in body mass/composition energy expenditure was analysed and adjusted using ANCOVA using scripts available at the National Mouse Metabolic Phenotyping Centers (MMPC, Nashville, TN, USA) Energy Expenditure Analysis Page (https://www.mmpc.org/shared/regression.aspx).
Conscious mice were restrained by scruffing and inverted parallel to the floor with the chin at ˜180-degree angle with the neck. Using a 10 μL tip, a pipettor was loaded with 5 μl of vehicle (ddH2O) or fluorosamine (1 mg/animal in 20 μl or 5 mg/animal in 20 μl). The tip of the filled pipettor was placed near the left nostril at a 45-degree angle, and the drug was ejected to form a small 5 μl droplet at tip for the mouse to inhale. […]

For assay [2], the system named is insulin-induced p-AKT in the ARC. Put plainly: Intranasal PZ6005 in obese mice: insulin-induced p-AKT immunohistochemistry in the ARC. As to conditions: both doses I.N. (1 or 5 mg/animal/day), 14 days, after I.P. insulin. As for the experimental part:
Conscious mice were restrained by scruffing and inverted parallel to the floor with the chin at ˜180-degree angle with the neck. Using a 10 μL tip, a pipettor was loaded with 5 μl of vehicle (ddH2O) or fluorosamine (1 mg/animal in 20 μl or 5 mg/animal in 20 μl). The tip of the filled pipettor was placed near the left nostril at a 45-degree angle, and the drug was ejected to form a small 5 μl droplet at tip for the mouse to inhale. Immediately after the mouse inhaled the first droplet the remaining solution was ejected to form another small droplet for the mouse to inhale through the same nostril. The mouse was held in this position for 15 seconds before the procedure was repeated in the right nostril. The mouse was returned to the cage for 2 minutes and the process was repeated so that each mouse received four droplets of 5 μl each, delivering a total of 20 μl of solution. All drugs were administered delivered approximately 1 h before lights off […].

Assay [3] is described as follows: I.C.V. fluorosamine in obese mice: metabolic assessment. As to conditions: I.C.V. daily for 10 days. As to the method: Metabolic measurements were undertaken in the Melbourne Mouse Metabolic Phenotyping Platform (The University of Melbourne, Australia). Glucose tolerance tests were performed on 6 h fasted conscious mice respectively by injecting D-glucose (2 mg/g of lean body mass and 1 mg/g lean mass for db/db and HFHS+STZ mice) into the peritoneal cavity and measuring glucose in tail blood immediately before and at 15, 30, 45, 60, 90 and 120 min after injection using an Accu-Check glucometer (Roche, Germany). The areas under glucose excursion curves were determined and expressed as mmol/1×min. Fasted (12 h fast) plasma insulin or glucose levels were determined using a Rat/Mouse Insulin ELISA (EZRMI-13K, Merck Millipore, CA) or an Accu-Check glucometer respectively. The HOMA-IR was calculated using the equation [(glucose×insulin)/405]. Adiposity was measured using TD-NMR minispec (Bruker Optics Inc., Billerica, MA).
as §1
Under isoflurane anaesthetic 12-week HFHS fed C57BL/6J or AgRP-Cas9 mice were implanted stereotaxically with guide cannulas into the right lateral ventricle (0.2 mm posterior, 1.0 mm lateral from bregma). Guide cannula was positioned 1.3 mm above the injection site (1 mm ventral to the surface of the skull). AgRP-Cas9 mice were treated with either AAV-gScrambled or AAV-gIR and underwent guide cannula placement 7 days post AAV administration. Mice were administered I.C.V. vehicle (ddH2O), fluorosamine (100 μg/animal/day or 250 μgl/animal/day) in a volume of 2 μl/animal and all compounds were delivered approximately 1 h before lights off […].

As to `CC(=O)NC1C(OC(C)=O)OC(COC(C)=O)[C@@H](F)C1OC(C)=O` (some centres unmarked) [fluorosamine, per-O-acetylated-4-F-N-acetylglucosamine], in assay [1], the energy expenditure result was “increases energy expenditure” and the food intake entry was “decreases food intake”. For the same compound, the “ARC pAKT +ve. cells (insulin receptor signalling)” value in assay [2] is on record as “robust increase”. Moreover, in assay [3], the adiposity entry is on record as “reduced adiposity”, the body weight result is recorded as “promoted weight loss”, the energy expenditure entry is recorded as “enhanced energy expenditure independently of ambulatory activity” and the food intake result was “supressed food intake through enhanced satiety”. Further, the glucose tolerance result in assay [3] was “improved glucose tolerance”.
